Test results taken from patent publication US20210222208A1, “SUGAR-DERIVED STIMULANT FOR ENHANCEMENT OF AEROBIC AND ANAEROBIC FERMENTATION PERFORMANCE” (priority 2018, published 2021).

Tested on: S. cerevisiae M11205
Assay type: cell-based, Saccharomyces cerevisiae

## OCCCCO [1,4-butanediol]
  Contribution to enhancement at higher sugar concentrations: no distinct contribution for enhancement
  Contribution to stimulant properties versus control without addition: not itself a contributor to the stimulant properties
  Day 5 % of Theoretical Max. Ethanol Yield: 88.8%
  Effect on fermentation rates: does not create the increased fermentation rates
